From BindingDB's records for doi:10.1111/cbdd.12489 (Zhejiang University, 2015)

Biological target: RAC-alpha serine/threonine-protein kinase (Homo sapiens, UniProt P31749)
Experiment: Akt1 Inhibitory Activity Assay
Conditions: pH 7.5; 25 °C
Experimental: In vitro kinase assays were carried out using HTScan PKB/Akt1 Kinase Assay kit (Cell Signaling Technology). […] Then, PKB/Akt1 kinase activity was analyzed according to the manufacturer's instructions.

Chain of RAC-alpha serine/threonine-protein kinase (P31749 whole entry): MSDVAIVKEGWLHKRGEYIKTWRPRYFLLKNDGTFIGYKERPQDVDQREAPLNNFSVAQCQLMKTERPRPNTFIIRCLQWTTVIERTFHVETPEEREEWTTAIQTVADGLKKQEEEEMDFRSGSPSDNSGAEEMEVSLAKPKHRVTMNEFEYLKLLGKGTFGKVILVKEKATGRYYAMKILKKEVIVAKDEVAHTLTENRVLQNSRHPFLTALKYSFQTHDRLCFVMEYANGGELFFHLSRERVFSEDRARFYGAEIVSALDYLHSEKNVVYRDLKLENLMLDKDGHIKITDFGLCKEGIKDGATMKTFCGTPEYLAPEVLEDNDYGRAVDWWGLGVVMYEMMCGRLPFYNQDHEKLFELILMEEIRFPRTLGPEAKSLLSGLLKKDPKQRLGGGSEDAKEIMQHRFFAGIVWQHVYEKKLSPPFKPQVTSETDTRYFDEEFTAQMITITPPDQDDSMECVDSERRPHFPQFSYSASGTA

Structure (SMILES) | IC50
O=c1c(O)c(-c2ccc(O)c(O)c2)oc2cc(O)c(CN3CCOCC3)c(O)c12 [2-(3,4-Dihydroxyphenyl)-3,5,7-trihydroxy-6-(morpholinomethyl)-4H-chromen-4-one (3a)] | 6.2 µM
CN(Cc1ccccc1)Cc1c(O)cc2oc(-c3ccc(O)c(O)c3)c(O)c(=O)c2c1O [6-((Benzyl(methyl)amino)methyl)-2-(3,4-dihydroxyphenyl)-3,5,7-trihydroxy-4H-chromen-4-one (3c)] | 5.5 µM
